In ChEMBL document CHEMBL3351476, “The discovery of I-BET726 (GSK1324726A), a potent tetrahydroquinoline ApoA1 up-regulator and selective BET bromodomain inhibitor” (J Med Chem, 2014):
Values after ≈ are worked out from the molar mass of the structure shown.

Assays:
[1] = target: ATPase family AAA domain-containing protein 2B (Homo sapiens, UniProt Q9ULI0); assay: Inhibition of human ATAD2B by BROMOscan assay
[2] = Oral bioavailability in Cynomolgus monkey at 2 mg/kg; format: ADME, organism-based, Macaca fascicularis; details: in vivo
[3] = target: T1, Bromodomain testis-specific protein (Homo sapiens, UniProt Q58F21); assay: Inhibition of BRDT (unknown origin) by TR-FRET assay
[4] = Permeability of the compound by PAMPA; format: ADME; details: read-out: permeability
[5] = Volume of distribution at steady state in beagle dog at 1 mg/kg, iv as infusion and 3 mg/kg, po; format: ADME, organism-based, Canis lupus familiaris; details: in vivo, read-out: Vdss
[6] = target: Bromodomain adjacent to zinc finger domain protein 2A (Homo sapiens, UniProt Q9UIF9); assay: Inhibition of human BAZ2A by BROMOscan assay
[7] = Clearance in Cynomolgus monkey hepatocytes assessed per gram of tissue at 1 uM by LC-MS/MS analysis; format: ADME, cell-based, Macaca fascicularis, Hepatocyte
[8] = target: T2, Protein polybromo-1 (Homo sapiens, UniProt Q86U86); assay: Inhibition of human PBRM1 bromodomain 1 by BROMOscan assay
T2 sequence (Q86U86 whole entry): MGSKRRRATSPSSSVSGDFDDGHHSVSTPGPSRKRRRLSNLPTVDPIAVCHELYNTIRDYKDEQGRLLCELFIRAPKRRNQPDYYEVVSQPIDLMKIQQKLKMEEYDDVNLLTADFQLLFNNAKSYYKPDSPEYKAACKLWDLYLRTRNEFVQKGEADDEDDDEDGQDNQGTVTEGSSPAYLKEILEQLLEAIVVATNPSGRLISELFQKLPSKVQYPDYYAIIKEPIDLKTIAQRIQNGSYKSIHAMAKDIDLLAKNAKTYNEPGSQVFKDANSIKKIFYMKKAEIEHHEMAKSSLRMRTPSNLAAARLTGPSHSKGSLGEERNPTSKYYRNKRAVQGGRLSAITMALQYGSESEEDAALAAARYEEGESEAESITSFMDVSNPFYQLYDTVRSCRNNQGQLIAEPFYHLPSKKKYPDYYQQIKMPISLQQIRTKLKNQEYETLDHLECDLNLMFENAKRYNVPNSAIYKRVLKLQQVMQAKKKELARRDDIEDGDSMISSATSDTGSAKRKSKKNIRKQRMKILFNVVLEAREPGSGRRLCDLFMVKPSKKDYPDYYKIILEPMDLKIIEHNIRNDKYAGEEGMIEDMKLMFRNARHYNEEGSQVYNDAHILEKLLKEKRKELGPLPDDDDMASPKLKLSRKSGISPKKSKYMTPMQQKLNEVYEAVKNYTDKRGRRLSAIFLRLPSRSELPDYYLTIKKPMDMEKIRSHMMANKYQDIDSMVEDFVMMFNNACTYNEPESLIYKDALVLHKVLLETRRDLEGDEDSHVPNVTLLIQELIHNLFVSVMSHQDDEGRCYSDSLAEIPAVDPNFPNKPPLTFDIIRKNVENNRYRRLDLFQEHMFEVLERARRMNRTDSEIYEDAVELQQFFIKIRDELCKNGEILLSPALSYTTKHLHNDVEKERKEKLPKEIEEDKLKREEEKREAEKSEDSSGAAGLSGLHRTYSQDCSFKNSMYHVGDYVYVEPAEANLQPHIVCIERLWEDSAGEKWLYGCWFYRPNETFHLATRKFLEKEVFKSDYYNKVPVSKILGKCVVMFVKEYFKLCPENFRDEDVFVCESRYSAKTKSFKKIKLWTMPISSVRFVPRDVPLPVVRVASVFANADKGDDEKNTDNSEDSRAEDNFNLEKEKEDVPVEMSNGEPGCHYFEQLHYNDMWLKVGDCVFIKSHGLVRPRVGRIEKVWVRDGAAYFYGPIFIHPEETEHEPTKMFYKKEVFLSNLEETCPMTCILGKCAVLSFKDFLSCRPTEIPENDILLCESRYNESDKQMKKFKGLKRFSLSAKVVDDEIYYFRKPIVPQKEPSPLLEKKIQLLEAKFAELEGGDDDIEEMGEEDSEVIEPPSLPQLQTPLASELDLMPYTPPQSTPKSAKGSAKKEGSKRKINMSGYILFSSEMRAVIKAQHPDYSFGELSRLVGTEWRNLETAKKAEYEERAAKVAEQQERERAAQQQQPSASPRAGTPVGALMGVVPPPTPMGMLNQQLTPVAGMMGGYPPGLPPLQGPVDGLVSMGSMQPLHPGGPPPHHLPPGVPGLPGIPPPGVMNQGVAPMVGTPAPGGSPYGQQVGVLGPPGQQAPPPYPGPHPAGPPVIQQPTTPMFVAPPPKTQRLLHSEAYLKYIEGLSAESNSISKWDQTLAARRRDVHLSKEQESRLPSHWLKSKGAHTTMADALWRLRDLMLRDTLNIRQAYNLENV

[9] = Oral bioavailability in beagle dog at 3 mg/kg; format: ADME, organism-based, Canis lupus familiaris; details: in vivo
[10] = Volume of distribution at steady state in rat at 1 mg/kg, iv as infusion and 3 mg/kg, po; format: ADME, organism-based; details: in vivo, read-out: Vdss
[11] = target: T3, Bromodomain-containing protein 2 (Homo sapiens, UniProt P25440); assay: Displacement of biotinylated tetra-acetylated histone H4 from His6-tagged BRD2 (1 to 473 aa) (unknown origin) after 1 hr by TR-FRET assay
T3 sequence (P25440 whole entry, the tested form may be a part): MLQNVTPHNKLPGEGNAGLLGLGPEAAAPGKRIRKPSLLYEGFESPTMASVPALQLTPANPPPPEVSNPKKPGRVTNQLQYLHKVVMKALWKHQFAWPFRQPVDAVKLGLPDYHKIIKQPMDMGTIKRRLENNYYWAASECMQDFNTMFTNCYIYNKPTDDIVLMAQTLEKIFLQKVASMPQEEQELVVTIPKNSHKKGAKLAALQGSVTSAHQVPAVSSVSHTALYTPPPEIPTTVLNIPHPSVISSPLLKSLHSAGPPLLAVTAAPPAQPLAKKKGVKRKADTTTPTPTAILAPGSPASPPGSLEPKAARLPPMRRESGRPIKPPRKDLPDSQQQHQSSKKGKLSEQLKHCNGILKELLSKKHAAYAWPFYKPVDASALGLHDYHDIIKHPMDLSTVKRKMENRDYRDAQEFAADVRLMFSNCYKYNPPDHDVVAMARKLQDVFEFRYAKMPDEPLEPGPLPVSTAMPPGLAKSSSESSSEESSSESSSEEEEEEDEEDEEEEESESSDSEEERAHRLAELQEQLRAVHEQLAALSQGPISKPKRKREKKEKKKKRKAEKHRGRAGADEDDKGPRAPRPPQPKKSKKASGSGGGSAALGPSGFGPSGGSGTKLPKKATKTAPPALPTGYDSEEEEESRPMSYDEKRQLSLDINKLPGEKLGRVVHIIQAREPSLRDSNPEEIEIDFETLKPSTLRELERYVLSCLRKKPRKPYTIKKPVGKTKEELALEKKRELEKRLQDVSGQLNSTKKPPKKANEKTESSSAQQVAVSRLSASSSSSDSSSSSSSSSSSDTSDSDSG

[12] = target: CREB-binding protein (Homo sapiens, UniProt Q92793); assay: Inhibition of human CREBBP by BROMOscan assay
[13] = target: Cytochrome P450 2C9 (Homo sapiens, UniProt P11712); assay: Inhibition of CYP2C9 (unknown origin) expressed in Escherichia coli bactosomes using 7-methoxy-4-trifluoromethylcoumarin-3-acetic acid as substrate after 10 mins by fluorescence assay; format: ADME
Chain of Cytochrome P450 2C9 (P11712 whole entry): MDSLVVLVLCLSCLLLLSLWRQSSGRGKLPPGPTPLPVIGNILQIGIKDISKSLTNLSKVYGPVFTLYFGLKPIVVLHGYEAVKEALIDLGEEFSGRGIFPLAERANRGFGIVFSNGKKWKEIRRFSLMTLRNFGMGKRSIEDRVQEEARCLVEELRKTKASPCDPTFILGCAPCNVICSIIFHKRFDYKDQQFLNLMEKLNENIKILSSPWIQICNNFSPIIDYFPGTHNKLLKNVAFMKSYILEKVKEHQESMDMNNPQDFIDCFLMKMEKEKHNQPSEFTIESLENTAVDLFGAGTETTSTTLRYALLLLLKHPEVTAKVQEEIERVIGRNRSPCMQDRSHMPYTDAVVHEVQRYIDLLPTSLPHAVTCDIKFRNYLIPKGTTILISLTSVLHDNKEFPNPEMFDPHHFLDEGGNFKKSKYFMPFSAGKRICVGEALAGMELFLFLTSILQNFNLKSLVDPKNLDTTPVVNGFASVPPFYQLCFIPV

[14] = system: PBMC; assay: Inhibition of LPS-induced IL6 production in human PBMC after 18 to 24 hrs by immunoassay; format: functional, cell-based
[15] = target: Bromodomain-containing protein 1 (Homo sapiens, UniProt O95696); assay: Inhibition of human BRD1 by BROMOscan assay
[16] = Volume of distribution at steady state in Cynomolgus monkey at 1 mg/kg, iv as infusion and 3 mg/kg, po; format: ADME, organism-based, Macaca fascicularis; details: in vivo, read-out: Vdss
[17] = Blood clearance in Balb/c mouse at 10 mg/kg, iv as bolus dose; format: ADME, organism-based; set-up: dose 10 mg/kg, route intravenous; details: whole blood
[18] = target: Transcription intermediary factor 1-alpha (Homo sapiens, UniProt O15164); assay: Inhibition of human TIF1alpha PHD/bromodomain by BROMOscan assay
[19] = target: Nucleosome-remodeling factor subunit BPTF (Homo sapiens, UniProt Q12830); assay: Inhibition of human BPTF by BROMOscan assay
[20] = Fraction unbound in rat blood by rapid equilibrium dialysis method; format: ADME, tissue-based
[21] = target: Peregrin (Homo sapiens, UniProt P55201); assay: Inhibition of human BRPF1 by BROMOscan assay
Chain of Peregrin (P55201 whole entry): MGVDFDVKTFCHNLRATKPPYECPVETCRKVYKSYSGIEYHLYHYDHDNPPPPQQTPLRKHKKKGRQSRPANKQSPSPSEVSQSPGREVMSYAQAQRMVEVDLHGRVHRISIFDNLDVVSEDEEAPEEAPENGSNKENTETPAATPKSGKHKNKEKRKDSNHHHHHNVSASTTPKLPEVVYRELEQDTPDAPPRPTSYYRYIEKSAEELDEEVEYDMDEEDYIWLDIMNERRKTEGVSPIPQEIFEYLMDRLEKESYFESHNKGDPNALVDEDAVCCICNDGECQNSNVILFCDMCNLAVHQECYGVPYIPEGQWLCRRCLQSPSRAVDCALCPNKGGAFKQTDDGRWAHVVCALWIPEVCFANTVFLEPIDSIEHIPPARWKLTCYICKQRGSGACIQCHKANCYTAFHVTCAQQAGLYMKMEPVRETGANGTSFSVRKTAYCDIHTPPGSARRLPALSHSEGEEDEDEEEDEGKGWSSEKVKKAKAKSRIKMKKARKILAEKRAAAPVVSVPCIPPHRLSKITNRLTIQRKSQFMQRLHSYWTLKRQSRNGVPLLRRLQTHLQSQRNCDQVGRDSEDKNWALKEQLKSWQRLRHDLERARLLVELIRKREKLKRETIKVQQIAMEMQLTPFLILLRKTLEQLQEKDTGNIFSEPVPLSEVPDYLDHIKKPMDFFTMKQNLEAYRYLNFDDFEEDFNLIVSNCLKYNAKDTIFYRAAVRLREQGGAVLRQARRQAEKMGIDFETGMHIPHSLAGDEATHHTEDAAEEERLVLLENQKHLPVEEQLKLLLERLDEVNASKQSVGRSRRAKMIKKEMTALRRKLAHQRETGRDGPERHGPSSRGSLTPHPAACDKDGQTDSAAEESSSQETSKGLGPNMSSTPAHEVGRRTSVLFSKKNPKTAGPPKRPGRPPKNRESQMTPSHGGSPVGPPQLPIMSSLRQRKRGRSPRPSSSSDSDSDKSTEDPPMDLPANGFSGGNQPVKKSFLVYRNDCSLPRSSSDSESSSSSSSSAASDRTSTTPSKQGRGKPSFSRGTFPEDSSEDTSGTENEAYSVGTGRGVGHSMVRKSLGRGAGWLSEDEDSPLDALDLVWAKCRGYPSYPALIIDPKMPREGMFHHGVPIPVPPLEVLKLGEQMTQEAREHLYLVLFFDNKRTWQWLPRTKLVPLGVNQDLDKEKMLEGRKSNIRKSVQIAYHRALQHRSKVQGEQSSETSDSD

[22] = target: Bromodomain and WD repeat-containing protein 1 (Homo sapiens, UniProt Q9NSI6); assay: Inhibition of human WDR9 bromodomain 2 by BROMOscan assay
[23] = target: T4, Bromodomain-containing protein 3 (Homo sapiens, UniProt Q15059); assay: Inhibition of human BRD3 bromodomain 2 by BROMOscan assay
T4 sequence (Q15059 whole entry): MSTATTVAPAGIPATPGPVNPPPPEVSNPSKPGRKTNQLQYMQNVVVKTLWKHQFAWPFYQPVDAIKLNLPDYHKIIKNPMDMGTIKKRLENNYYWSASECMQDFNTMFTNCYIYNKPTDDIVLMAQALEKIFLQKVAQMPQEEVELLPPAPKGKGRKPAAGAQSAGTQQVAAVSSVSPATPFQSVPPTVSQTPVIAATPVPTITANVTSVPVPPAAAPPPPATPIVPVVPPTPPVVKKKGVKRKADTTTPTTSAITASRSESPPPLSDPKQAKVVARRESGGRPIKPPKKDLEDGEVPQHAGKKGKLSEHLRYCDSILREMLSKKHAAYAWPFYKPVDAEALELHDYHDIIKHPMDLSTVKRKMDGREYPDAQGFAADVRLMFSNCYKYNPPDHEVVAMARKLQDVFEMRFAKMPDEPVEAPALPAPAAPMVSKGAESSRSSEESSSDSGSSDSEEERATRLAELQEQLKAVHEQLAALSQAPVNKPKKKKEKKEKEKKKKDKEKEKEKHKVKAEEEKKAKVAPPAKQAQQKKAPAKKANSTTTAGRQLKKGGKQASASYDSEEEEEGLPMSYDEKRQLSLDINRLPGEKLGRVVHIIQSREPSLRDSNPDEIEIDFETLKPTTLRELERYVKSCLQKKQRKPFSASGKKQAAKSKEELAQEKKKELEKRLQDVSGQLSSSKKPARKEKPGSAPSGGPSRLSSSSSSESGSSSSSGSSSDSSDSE

[24] = Fraction unbound in human blood by rapid equilibrium dialysis method; format: ADME, tissue-based
[25] = target: T4, Bromodomain-containing protein 3; assay: Inhibition of human BRD3 bromodomain 1 by BROMOscan assay
[26] = Blood clearance in rat at 1 mg/kg, iv as infusion and 3 mg/kg, po; format: ADME, organism-based; details: whole blood
[27] = system: Blood; assay: Inhibition of LPS-induced IL6 production in human whole blood after 24 hrs by immunoassay; format: functional, tissue-based
[28] = AUC (0 to t) in Balb/c mouse at 3 mg/kg, po; format: ADME, organism-based; set-up: dose 3 mg/kg, route oral; details: plasma
[29] = system: HepG2; assay: Upregulation of ApoA1 in human HepG2 cells after 16 hrs by luciferase reporter assay relative to control; format: functional
[30] = target: Cytochrome P450 3A4 (Homo sapiens, UniProt P08684); assay: Time-dependent inhibition of human recombinant CYP3A4 expressed in Escherichia coli bactosomes using diethoxyfluorescein as substrate by fluorescence assay; format: ADME; details: recombinant enzyme
[31] = AUC (0 to t) in beagle dog at 3 mg/kg, po; format: ADME, organism-based, Canis lupus familiaris; set-up: dose 3 mg/kg, route oral; details: plasma
[32] = target: T3, Bromodomain-containing protein 2; assay: Inhibition of human BRD2 bromodomain 2 by BROMOscan assay
[33] = target: T3, Bromodomain-containing protein 2; assay: Binding affinity to His6-tagged BRD2 (1 to 473 aa) (unknown origin) by SPR method
[34] = target: Bromodomain adjacent to zinc finger domain protein 2B (Homo sapiens, UniProt Q9UIF8); assay: Inhibition of BAZ2B (unknown origin) by BROMOscan assay
[35] = target: T1, Bromodomain testis-specific protein; assay: Inhibition of human BRDT bromodomain 1 by BROMOscan assay
[36] = target: Cytochrome P450 1A2 (Homo sapiens, UniProt P05177); assay: Inhibition of CYP1A2 (unknown origin) expressed in Escherichia coli bactosomes using ethoxyresorufin as substrate after 10 mins by fluorescence assay; format: ADME
[37] = target: SWI/SNF-related matrix-associated actin-dependent regulator of chromatin subfamily A member 2 (Homo sapiens, UniProt P51531); assay: Inhibition of human SMARCA2 by BROMOscan assay
[38] = target: Bromodomain-containing protein 9 (Homo sapiens, UniProt Q9H8M2); assay: Inhibition of human BRD9 by BROMOscan assay
[39] = Clearance in dog hepatocytes assessed per gram of tissue at 1 uM by LC-MS/MS analysis; format: ADME, cell-based, Canis lupus familiaris, Hepatocyte
[40] = target: Chromatin remodeling regulator CECR2 (Homo sapiens, UniProt Q9BXF3); assay: Inhibition of human CECR2 by BROMOscan assay
[41] = target: T4, Bromodomain-containing protein 3; assay: Displacement of biotinylated tetra-acetylated histone H4 from His6-tagged BRD3 (1 to 475 aa) (unknown origin) after 1 hr by TR-FRET assay
[42] = system: Mus musculus; assay: Antiinflammatory activity in septic shock Balb/c mouse model assessed as mouse survival at 10 mg/kg, iv as single dose post LPS challenge measured after 5 days post treatment relative to vehicle-treated control; format: functional; details: 120 h
[43] = target: T2, Protein polybromo-1; assay: Inhibition of human PBRM1 bromodomain 5 by BROMOscan assay
[44] = AUC (0 to t) in rat at 3 mg/kg, po; format: ADME, organism-based; set-up: dose 3 mg/kg, route oral; details: plasma
[45] = AUC (0 to t) in Cynomolgus monkey at 2 mg/kg, po; format: ADME, organism-based, Macaca fascicularis; set-up: dose 2 mg/kg, route oral; details: plasma
[46] = Oral bioavailability in rat at 3 mg/kg; format: ADME, organism-based; details: in vivo
[47] = Solubility of the compound in fasted state simulated intestinal fluid at 125 ug/ml after 16 hrs by HPLC analysis; format: ADME; details: fasted state simulated intestinal fluid
[48] = target: Histone acetyltransferase p300 (Homo sapiens, UniProt Q09472); assay: Inhibition of human EP300 by BROMOscan assay
[49] = target: T1, Bromodomain testis-specific protein; assay: Inhibition of human BRDT bromodomain 2 by BROMOscan assay

CC(=O)N1c2ccc(-c3ccc(C(=O)O)cc3)cc2[C@H](Nc2ccc(Cl)cc2)C[C@@H]1C
IC50 [1]: > 31.6 µM | bioavailability [2]: 103% | IC50 [3]: 0.0501 µM | Papp [4]: 9.5 ×10⁻⁶ cm/s | Vd [5]: 0.8 L/kg | IC50 [6]: > 31.6 µM | CLH [7]: < 0.85 mL/min/g | IC50 [8]: 0.631 µM | bioavailability [9]: 80% | Vd [10]: 2 L/kg | IC50 [11]: 0.158 µM | IC50 [12]: 31.6 µM | IC50 [13]: 13 µM | IC50 [14]: 0.0501 µM | IC50 [15]: > 20 µM | Vd [16]: 1 L/kg | clearance [17]: 3.1 mL/min/kg | IC50 [18]: 15.8 µM | IC50 [19]: > 31.6 µM | fraction unbound [20]: 0.009 | IC50 [21]: > 0.00398 µM | IC50 [22]: 31.6 µM | IC50 [23]: 0.002 µM | fraction unbound [24]: 0.017 | IC50 [25]: 0.000631 µM | clearance [26]: 26 mL/min/kg | IC50 [27]: 0.398 µM | AUC(0-t) [28]: 6030 ng·h/mL | pEC170 [29]: 8.1 | inhibition (INH) [30]: Active | AUC(0-t) [31]: 5900 ng·h/mL | IC50 [32]: 0.00316 µM | Kd [33]: 0.025 µM | IC50 [34]: > 31.6 µM | IC50 [35]: 31.6 µM | IC50 [36]: > 33 µM | IC50 [37]: > 31.6 µM | IC50 [38]: > 31.6 µM | CLH [39]: < 1.7 mL/min/g | IC50 [40]: > 31.6 µM | IC50 [41]: 0.2 µM | survival at 10 mg/kg [42]: 56% | IC50 [43]: > 31.6 µM | AUC(0-t) [44]: 539 ng·h/mL | AUC(0-t) [45]: 11000 ng·h/mL | bioavailability [46]: 28% | solubility at 16 h [47]: 106 µg/mL (≈ 244 µM) | IC50 [48]: 31.6 µM | IC50 [49]: 31.6 µM
